The results in this text go back to EPA's ToxValDB 9.5 (doi:10.2903/j.efsa.2012.2502).

The subject of one data set is Oryctolagus sp. As to conditions: developmental; development.
The subject of the next data set is Rattus norvegicus. To be noted: for LD50: acute, oral, mortality; for NOAEL: reproduction developmental, histopathology: nonneoplastic.
In another data set the test system is Oncorhynchus mykiss. As to conditions: acute; duration: 96 hours; mortality.
A further data set relates to Tagia sp. To be noted: acute; duration: 14 days; mortality.
The test system of a further data set is Apis mellifera. To be noted: acute, mortality.
Another data set concerns Typhlodromus pyri. Description: LR50; higher = less toxic. As to conditions: not reported; mortality.
The subject of a further data set is Colinus virginianus. As to conditions: acute, oral, mortality.

The term NOAEL denotes the highest tested level that showed no adverse finding.

For the compound `C=C1C[C@]23C[C@H]1CC[C@H]2[C@@]12C=C[C@H](O)[C@@](C)(C(=O)O1)[C@H]2[C@@H]3C(=O)O` [Gibberellin A7], the NOAEL in the data set on Oryctolagus sp. and in the data set on Rattus norvegicus was 300 mg/kg-day throughout. Moreover, the LD50 is more than 5000 mg/kg in the data set on Rattus norvegicus; more than 100 µg/piece in the data set with Apis mellifera (dermal); more than 87 µg/piece in the data set with Apis mellifera (oral, unspecified). Moreover, the LC50 with Oncorhynchus mykiss was more than 1.3 µg/mL; in the data set on Tagia sp., more than 1250 mg/kg. Further, in the data set on Typhlodromus pyri, the LR50 is more than 40 g/ha.
Turning to `C=C1C[C@]23C[C@H]1CC[C@H]2[C@@]12CC[C@H](O)[C@@](C)(C(=O)O1)[C@H]2[C@@H]3C(=O)O` [Gibberellin A4], the NOAEL in the data set with Oryctolagus sp. and in the data set on Rattus norvegicus was 300 mg/kg-day each time. For the same compound, the LD50 was more than 5000 mg/kg with Rattus norvegicus; more than 100 µg/piece with Apis mellifera (dermal); more than 87 µg/piece in the data set on Apis mellifera (oral, unspecified). The LC50 was more than 1.3 µg/mL in the data set with Oncorhynchus mykiss and more than 1250 mg/kg in the data set with Tagia sp.. In the data set with Typhlodromus pyri, the LR50 is more than 40 g/ha.
In the case of `C=C1C[C@]23C[C@@]1(O)CC[C@H]2[C@@]12C=C[C@H](O)[C@@](C)(C(=O)O1)[C@H]2[C@@H]3C(=O)O` [Gibberellic acid], the LD50 in the data set with Colinus virginianus (diet) is more than 1380 mg/kg-day; with Colinus virginianus, more than 2250 mg/kg.
